Data published in US5686563A, “Biologically active peptides having n-terminal substitutions” (priority 1995, dated 1997).
Square brackets hold non-standard residues; d marks the D form. Ends that are not written are not given here. Peptide text beside a SMILES is read from it. * marks the point of attachment. hArg = N=C(N)NCCCC[C@H](N)C(=O)O; Octanoyl = CCCCCCCC(=O)*

Key:
Experiment in all cases: Anaerobic antimicrobial susceptibility test (MIC)
Assay type in all cases: cell-based
P. gingivalis = details: 37° C., 24-48 hours; for MIC P. gingivalis (strain) W50: strain W50, BHI broth; for MIC P. gingivalis (strain) 9-14K-1: strain 9-14K-1, BHI broth; for MIC P. gingivalis (strain) 381: strain 381, BHI broth; for MIC P. gingivalis (strain) A7A1-28: strain A7A1-28, BHI broth; for MIC P. gingivalis (strain) FAY-19M-1: strain FAY-19M-1, BHI broth
A. viscosus = details: BHI broth, 37° C., 24-48 hours
S. mutans = details: BHI broth, 37° C., 24-48 hours

Compound | MIC P. gingivalis (strain) W50 (P. gingivalis) [μl/ml] | MIC A. viscos (A. viscosus) [μl/ml] | MIC S. mutans (S. mutans) [μl/ml] | MIC P. gingivalis (strain) 9-14K-1 (P. gingivalis) [μl/ml] | MIC P. gingivalis (strain) 381 (P. gingivalis) [μl/ml] | MIC P. gingivalis (strain) A7A1-28 (P. gingivalis) | MIC P. gingivalis (strain) FAY-19M-1 (P. gingivalis) [μl/ml]
CC[C@H](C)[C@H](NC(=O)[C@H](CCCCNC(=N)N)NC(=O)CNC(=O)[C@H](C)NC(=O)[C@@H](NC(=O)[C@H](CCCCNC(=N)N)NC(=O)[C@H](C)NC(=O)[C@@H](NC(=O)[C@H](CCCCNC(=N)N)NC(=O)CNC(=O)[C@H](C)NC(=O)[C@@H](NC(=O)[C@H](CCCCNC(=N)N)NC(=O)[C@H](C)NC(=O)[C@@H](NC(=O)[C@H](CCCCNC(=N)N)NC(=O)CNC(=O)[C@H](C)NC(=O)[C@@H](NC(=O)[C@@H](N)CCCCNC(=N)N)[C@@H](C)CC)[C@@H](C)CC)[C@@H](C)CC)[C@@H](C)CC)[C@@H](C)CC)C(=O)N[C@@H](C)C(N)=O [(SEQ ID NO: 66)-NH2] (H-[hArg]IAG[hArg]IA[hArg]IAG[hArg]IA[hArg]IAG[hArg]IA-NH2) | 4 | – | – | – | – | – | –
CCCCCCCC(=O)N[C@@H](CCCCN)C(=O)N[C@H](C(=O)N[C@@H](C)C(=O)NCC(=O)N[C@@H](CCCCN)C(=O)N[C@H](C(=O)N[C@@H](C)C(=O)N[C@@H](CCCCN)C(=O)N[C@H](C(=O)N[C@@H](C)C(=O)NCC(=O)N[C@@H](CCCCN)C(=O)N[C@H](C(=O)N[C@@H](C)C(=O)N[C@@H](CCCCN)C(=O)N[C@H](C(=O)N[C@@H](C)C(=O)NCC(=O)N[C@@H](CCCCN)C(=O)N[C@H](C(=O)N[C@@H](C)C(N)=O)[C@@H](C)CC)[C@@H](C)CC)[C@@H](C)CC)[C@@H](C)CC)[C@@H](C)CC)[C@@H](C)CC [Oct-(SEQ ID NO: 27)-NH2] (Octanoyl-KIAGKIAKIAGKIAKIAGKIA-NH2) | 16 | – | – | – | – | – | –
CCCCCCCC(=O)N[C@@H](CCCCN)C(=O)N[C@H](C(=O)N[C@@H](C)C(=O)NCC(=O)N[C@@H](CCCCN)C(=O)N[C@H](C(=O)N[C@@H](C)C(=O)N[C@@H](CCCCN)C(=O)N[C@H](C(=O)N[C@@H](C)C(=O)NCC(=O)N[C@@H](CCCCN)C(=O)N[C@H](C(=O)N[C@@H](C)C(=O)N[C@@H](CCCCN)C(=O)N[C@H](C(=O)N[C@@H](C)C(=O)NCC(=O)N[C@@H](CCCCN)C(=O)N[C@H](C(=O)N[C@@H](C)C(=O)O)[C@@H](C)CC)[C@@H](C)CC)[C@@H](C)CC)[C@@H](C)CC)[C@@H](C)CC)[C@@H](C)CC [Oct-(SEQ ID NO: 27)-OH] (Octanoyl-KIAGKIAKIAGKIAKIAGKIA-OH) | 1 | – | – | – | – | – | –
CCCCCCCC(=O)N[C@@H](CCCCNC(=N)N)C(=O)N[C@H](C(=O)N[C@@H](C)C(=O)NCC(=O)N[C@@H](CCCCNC(=N)N)C(=O)N[C@H](C(=O)N[C@@H](C)C(=O)N[C@@H](CCCCNC(=N)N)C(=O)N[C@H](C(=O)N[C@@H](C)C(=O)NCC(=O)N[C@@H](CCCCNC(=N)N)C(=O)N[C@H](C(=O)N[C@@H](C)C(=O)N[C@@H](CCCCNC(=N)N)C(=O)N[C@H](C(=O)N[C@@H](C)C(=O)NCC(=O)N[C@@H](CCCCNC(=N)N)C(=O)N[C@H](C(=O)N[C@@H](C)C(N)=O)[C@@H](C)CC)[C@@H](C)CC)[C@@H](C)CC)[C@@H](C)CC)[C@@H](C)CC)[C@@H](C)CC [Oct-(SEQ ID NO: 66)-NH2] (Octanoyl-[hArg]IAG[hArg]IA[hArg]IAG[hArg]IA[hArg]IAG[hArg]IA-NH2) | 2 | – | – | – | – | – | –
CCCCCCCC(=O)N[C@@H](CCCCN)C(=O)N[C@H](C(=O)N[C@@H](C)C(=O)N[C@@H](CCCCN)C(=O)N[C@@H](CCCCN)C(=O)N[C@H](C(=O)N[C@@H](C)C(=O)N[C@@H](CCCCN)C(=O)N[C@H](C(=O)N[C@@H](C)C(=O)N[C@@H](CCCCN)C(=O)N[C@@H](CCCCN)C(=O)N[C@H](C(=O)N[C@@H](C)C(=O)N[C@@H](CCCCN)C(=O)N[C@H](C(=O)N[C@@H](C)C(=O)N[C@@H](CCCCN)C(=O)N[C@@H](CCCCN)C(=O)N[C@H](C(=O)N[C@@H](C)C(=O)O)[C@@H](C)CC)[C@@H](C)CC)[C@@H](C)CC)[C@@H](C)CC)[C@@H](C)CC)[C@@H](C)CC [Oct-(SEQ ID NO: 86)-OH] (Octanoyl-KIAKKIAKIAKKIAKIAKKIA-OH) | 1 | – | – | – | – | – | –
(SEQ ID NO: 86)-OH: (Lys Ile Ala Lys Lys Ile Ala)3 unsubstituted at the N-terminal, C-terminal OH (H-KIAKKIAKIAKKIAKIAKKIA-OH) | 4 | 32 | 16 | 16 | 16 | 4 μl/ml | 8
KIAGKIAKIAGKIAKIAGKIA-NH2 [(SEQ ID NO: 27)-NH2] | 4 | – | – | – | – | – | –
KIAKKIAKIAKKIAKIAKKIA-NH2 [(SEQ ID NO: 86)-NH2] | 4 | 16 | 4 | 8 | 8 | 2 μl/ml | –
KVALKALKKVALKALKVALKAL-NH2 [(SEQ ID NO: 152)-NH2] | 4 | 16 | 16 | 4 | 32 | 4,8 μl/ml | 8
